Converted amounts (≈) assume the structure as drawn. Read-outs that look alike come from different tables or passages of the source.
Tests used:
ICR mice = assay: Toxicity after intraperitoneal administration to mice; assay type: in vivo; conditions: dose 100 mg/kg
Candida kefyr TIMM0301 = assay: Antimicrobial spectrum, liquid medium dilution method; assay type: cell-based; conditions: Kluyveromyces marxianus, medium YNBG
Method: (§1) The TKR459 obtained was used to determine antimicrobial spectra against various microorganisms. The minimal inhibitory concentration (µg/ml) was measured by the liquid medium dilution method as the minimal concentration causing a substantially complete inhibition of micobial growth. The sub-minimal inhibitory concentration (µg/ml) was determined as the minimal concentration causing a partial inhibition of micobial growth and shown in the parentheses of Table 2. In the table, YNBG stands for a medium comprising 0.67% of yeast nitrogen base (manufactured by Difco) and 1.0% of glucose.

[1] = tested on: Candida albicans TIMM0136; assay: as above; assay type: cell-based; conditions: medium YNBG, minimal concentration causing substantially complete inhibition of growth, read-out: Minimal inhibitory concentration
Method: as §1

[2] = tested on: Cryptococcus neoformans TIMM0354; assay: as above; assay type: cell-based; conditions: medium YNBG, minimal concentration causing substantially complete inhibition of growth, read-out: Minimal inhibitory concentration
Method: as §1

Solubility in solvents = assay type: physicochemical

CC1(CCC(=O)O)CCCCCCCCCCCCCC(O)C(O)C(O)C(N)C(O)O1 (stereo not drawn) [TKR459]
toxic signs (ICR mice): no toxic signs
MIC (Candida kefyr TIMM0301; minimal concentration causing substantially complete inhibition of growth, read-out: Minimal inhibitory concentration): 0.78 µg/mL (≈ 1.74 µM)
MIC (Candida kefyr TIMM0301; value in parentheses, minimal concentration causing partial inhibition of growth, read-out: sub-minimal inhibitory concentration): 0.39 µg/mL (≈ 0.871 µM)
MIC [1]: 0.78 µg/mL (≈ 1.74 µM)
MIC [2]: 3.13 µg/mL (≈ 6.99 µM)
solubility (Solubility in solvents; in chloroform): sparingly soluble
solubility (Solubility in solvents; in hexane): sparingly soluble
solubility (Solubility in solvents; in methanol): soluble
solubility (Solubility in solvents; in water): soluble
